In patent publication US6713474B2, “Pyrrolopyrimidines as therapeutic agents” (Abbott GmbH & Co. KG, priority 1998, dated 2004):

Row | SMILES | melting point
1 | COc1cc(-c2cn([C@H]3CC[C@H](N4CCN(C)CC4)CC3)c3ncnc(N)c23)ccc1NC(=O)OCc1ccccc1.O=C(O)/C=C\C(=O)O.O=C(O)/C=C\C(=O)O.O=C(O)/C=C\C(=O)O | 146 to 148 °C
2 | Cl.NCCn1cc(-c2ccc(Oc3ccccc3)cc2)c2c(N)ncnc21 | 284 to 285 °C
3 | NCc1cccnc1-n1cc(-c2ccc(Oc3ccccc3)cc2)c2c(N)ncnc21.O=C(O)/C=C\C(=O)O.O=C(O)/C=C\C(=O)O | 131 to 134 °C
4 | Cl.Cl.Nc1ncnc2c1c(-c1ccc(Oc3ccccc3)cc1)cn2C1CNOC1 (stereo not drawn) | 208 °C (dec.)
5 | Cl.Cl.NCCCCCCCCn1cc(-c2ccc(Oc3ccccc3)cc2)c2c(N)ncnc21.O.O (hydrate or solvate) | 120 °C
6 | Cl.Cl.Nc1ncnc2c1c(-c1ccc(Oc3ccccc3)cc1)cn2C1CCNC1 (stereo not drawn) (hydrate or solvate) | 298 °C (dec.)
7 | CN1CCN(C2CCC(n3cc(-c4ccc(Oc5ccccc5)cc4)c4c(N)ncnc43)C2)CC1.O=C(O)/C=C\C(=O)O.O=C(O)/C=C\C(=O)O.O=C(O)/C=C\C(=O)O (stereo not drawn) (hydrate or solvate) | 168 to 170 °C (dec.)
8 | CN1CCN([C@@H]2CCC[C@H](n3cc(-c4ccc(Oc5ccccc5)cc4)c4c(N)ncnc43)C2)CC1.Cl.Cl.Cl (relative stereo) | 224.5 to 226.5 °C (dec.)
9 | CN1CCN([C@H]2CCC[C@H](n3cc(-c4ccc(Oc5ccccc5)cc4)c4c(N)ncnc43)C2)CC1.Cl.Cl.Cl (relative stereo) (hydrate or solvate) | 304 to 306 °C (dec.)
10 | Nc1ncnc2c1c(-c1ccc(Oc3ccccc3)cc1)cn2C1CCOC1 (stereo not drawn) [Example 22, 5-(4-Phenoxyphenyl)-7-(3-tetrahydrofuryl)-7H-pyrrolo[2,3-d]pyrimidin-4-ylamine] | 196 to 196.5 °C
11 | CCN(CC)Cc1ccccc1Oc1ccc(-c2cn(C3CCOC3)c3ncnc(N)c23)cc1 (stereo not drawn) [Example 27, 2-[4-(4-Amino-7-(3-tetrahydrofuryl)-7H-pyrrolo[2,3-d]pyrimidin-5-yl)phenoxy]-N,N-diethylbenzylamine] | 107 to 110 °C
12 | N#Cc1ccccc1Oc1ccc(-c2cn(C3CCOC3)c3ncnc(N)c23)cc1 (stereo not drawn) [Example 28, 2-[4-(4-Amino-7-(3-tetrahydrofuryl)-7H-pyrrolo[2,3-d]pyrimidin-5-yl)phenoxy]-benzonitrile] | 201 to 203 °C
13 | Nc1ncnc2c1c(-c1ccc(Oc3ccccc3C=O)cc1)cn2C1CCOC1 (stereo not drawn) [Example 29, 2-[4-(4-Amino-7-(3-tetrahydrofuryl)-7H-pyrrolo[2,3-d)pyrimidin-5-yl)phenoxy]benzaldehyde] | 185 to 187 °C
14 | Nc1ncnc2c1c(-c1ccc(Oc3ccccc3)cc1)cn2C1COCC1O (stereo not drawn) [Example 30, 4-[4-Amino-5-(4-phenoxyphenyl)-7H-pyrrolo-[2,3-d]pyrimidin-7-yl]tetrahydrofuran-3-ol] | 234.5 to 235.5 °C
15 | Nc1ncnc2c1c(-c1ccc(Oc3ccccc3CN3CCOCC3)cc1)cn2C1CCOC1 (stereo not drawn) [Example 31, 5-[4-(2-Morpholinomethylphenoxy)phenyl]-7-(3-tetrahydrofuryl)-7H-pyrrolo[2,3-d]pyrimidin-4-ylamine] | 169 to 171 °C
16 | Nc1ncnc2c1c(-c1ccc(Oc3ccccc3CN3CCCCC3)cc1)cn2C1CCOC1 (stereo not drawn) [Example 32, 5-[4-(2-Piperidinomethylphenoxy)phenyl]-7-(3-tetrahydrofuryl)-7H-pyrrolo[2,3-d]pyrimidin-4-ylamine] | 76 to 78 °C
17 | COCCNCc1ccccc1Oc1ccc(-c2cn(C3CCOC3)c3ncnc(N)c23)cc1 (stereo not drawn) [Example 33, 5-{4-[2-(2-Methoxyethyl)aminomethylphenoxy]phenyl}-7-(3-tetrahydrofuryl)-7H-pyrrolo[2,3-d]-pyrimidin-4-ylamine] | 66 to 68 °C
18 | Nc1ncnc2c1c(-c1ccc(Oc3ccc(F)cc3)cc1)cn2C1CCOC1 (stereo not drawn) [Example 35, 5-[4-(4-Fluorophenoxy)phenyl]-7-(3-tetrahydrofuryl)-7H-pyrrolo[2,3-d]pyrimidin-4-ylamine] | 198 to 199 °C
19 | Nc1ncnc2c1c(-c1ccc(Oc3ccc(CN4CCOCC4)cc3)cc1)cn2C1CCOC1 (stereo not drawn) [Example 36, 5-[4-(4-Morpholinomethylphenoxy)-phenyl]-7-(3-tetrahydrofuryl)-7H-pyrrolo[2,3-d]pyrimidin-4-ylamine] | 142 to 144 °C
20 | Nc1ncnc2c1c(-c1ccc(Oc3cccc(CN4CCOCC4)c3)cc1)cn2C1CCOC1 (stereo not drawn) [Example 37, 5-[4-(3-Morpholinomethylphenoxy)phenyl]-7-(3-tetrahydrofuryl)-7H-pyrrolo[2,3-d]pyrimidin-4-ylamine] | 83 to 85 °C

Row | SMILES | melting point
21 | N#Cc1c(NCCc2ccncc2)cccc1Oc1ccc(-c2cn(C3CCOC3)c3ncnc(N)c23)cc1 (stereo not drawn) [Example 38, 2-[4-(4-Amino-7-(3-tetrahydrofuryl)-7H-pyrrolo[2,3-d]pyrimidin-5-yl)phenoxy]-6-(2-(4-pyridyl)ethylamino)-benzonitrile] | 212 to 213 °C
22 | N#Cc1c(NCCCn2ccnc2)cccc1Oc1ccc(-c2cn(C3CCOC3)c3ncnc(N)c23)cc1 (stereo not drawn) [Example 39, 2-[4-(4-Amino-7-(3-tetrahydrofuryl)-7H-pyrrolo[2,3-d]pyrimidin-5-yl)phenoxy]-6-(3-imidazol-1-yl)propylaminobenzonitrile] | 110 °C
23 | Nc1ncnc2c1c(-c1ccc(Oc3ccccc3)cc1)c(Br)n2C1CCOC1 (stereo not drawn) [Example 40, 4-Amino-6-bromo-5-(4-phenoxyphenyl)-7-(3-tetrahydrofuryl)-7H-pyrrolo[2,3-d]pyrimidine] | 205 to 206 °C
24 | COCCCNc1cccc(Oc2ccc(-c3cn(C4CCOC4)c4ncnc(N)c34)cc2)c1C#N (stereo not drawn) [Example 41, 2-[4-(4-Amino-7-(3-tetrahydrofuryl)-7H-pyrrolo[2,3-d]pyrimidin-5-yl)phenoxy]-6-(3-methoxypropylamino)benzonitrile] | 183 to 184 °C
25 | N#Cc1ccccc1Oc1ccc(-c2cn(C3CCOCC3)c3ncnc(N)c23)cc1 [Example 42, 2-[4-(4-Amino-7-(4-tetrahydropyranyl)-7H-pyrrolo[2,3-d]pyrimidin-5-yl)phenoxy]benzonitrile] | 125 °C
26 | N#Cc1c(OCCN2CCOCC2)cccc1Oc1ccc(-c2cn(C3CCOCC3)c3ncnc(N)c23)cc1 [Example 50, 2-(4-(4-Amino-7-(4-tetrahydropyranyl)-7H-pyrrolo[2,3-d]pyrimidin-5-yl)phenoxy]-6-(2-morpholinoethoxy)benzonitrile] | 110 °C
27 | N#Cc1c(NCCc2ccncc2)cccc1Oc1ccc(-c2cn(C3CCOCC3)c3ncnc(N)c23)cc1 [Example 51, 2-[4-(4-Amino-7-(4-tetrahydropyranyl)-7H-pyrrolo[2,3-d]pyrimidin-5-yl)phenoxy]-6-(2-(4-pyridyl)ethylamino)benzonitrile] | 120 to 123 °C
28 | COCCCNc1cccc(Oc2ccc(-c3cn(C4CCOCC4)c4ncnc(N)c34)cc2)c1C#N [Example 52, 2-[4-(4-Amino-7-(4-tetrahydropyranyl)-7H-pyrrolo[2,3-d]pyrimidin-5-yl)phenoxy)-6-(3-methoxypropylamino)benzonitrile] | 205 to 207 °C
29 | N#Cc1cc(F)ccc1Oc1ccc(-c2cn(C3CCOCC3)c3ncnc(N)c23)cc1 [Example 53, 2-[4-(4-Amino-7-(4-tetrahydropyranyl)-7H-pyrrolo[2,3-d]pyrimidin-5-yl)phenoxy]-5-fluorobenzonitrile] | 216 to 217 °C
30 | CCOC(=O)C(C)n1cc(-c2ccc(Oc3ccccc3)cc2)c2c(N)ncnc21 (stereo not drawn) [Example 148, Ethyl 2-[4-Amino-5-(4-phenoxyphenyl)-7H-pyrrolo[2,3-d]pyrimidin-7-yl]propionate] | 139 to 140 °C
31 | CC(C(=O)NCCN(C)C)n1cc(-c2ccc(Oc3ccccc3)cc2)c2c(N)ncnc21 (stereo not drawn) [Example 149, N-(2-Dimethylaminoethyl)-2-[4-amino-5-(4-phenoxyphenyl)-7H-pyrrolo[2,3-d]pyrimidin-7-yl)propionamide] | 163 to 164 °C
32 | CCOC(=O)Cn1cc(-c2ccc(Oc3ccccc3)cc2)c2c(N)ncnc21 [Example 150, Ethyl 2-[4-Amino-5-(4-phenoxyphenyl)-7H-pyrrolo[2,3-d]pyrimidin-7-yl]acetate] | 161 to 161.3 °C
33 | Nc1ncnc2c1c(-c1ccc(Oc3ccccc3)cc1)cn2CC(=O)NCCN1CCNCC1 [Example 152, N-[2-(Piperazin-1-yl)ethyl]-2-[4-amino-5-[4-phenoxyphenyl)-7H-pyrrolo[2,3-d]-pyrimidin-7-yl]acetamide] | 138 to 140 °C
34 | Nc1ncnc2c1c(-c1ccc(Oc3ccccc3)cc1)cn2CC(=O)NCCN1CCOCC1 [Example 153, N-(2-Morpholinoethyl)-2-[4-amino-5-(4-phenoxyphenyl)-7H-pyrrolo[2,3-d]pyrimidin-7-yl]acetamide] | 164 to 165 °C
35 | CCN1CCCC1CNC(=O)Cn1cc(-c2ccc(Oc3ccccc3)cc2)c2c(N)ncnc21 (stereo not drawn) [Example 155, N-(N-Ethylpyrrolidin-2-ylmethyl)-2-[4-amino-5-(4-phenoxyphenyl)-7H-pyrrolo[2,3-d]-pyrimidin-7-yl]acetamide] | 122 to 122.5 °C
36 | Nc1ncnc2c1c(-c1ccc(Oc3ccccc3)cc1)cn2CC(=O)NCCOCCO [Example 156, N-[-2(2-hydroxyethoxy)ethyl]-2-[4-amino-5-(4-phenoxyphenyl)-7H-pyrrolo[2,3-d]-pyrimidin-7-yl]acetamide] | 145 to 147 °C
37 | CC(C(=O)O)n1cc(-c2ccc(Oc3ccccc3)cc2)c2c(N)ncnc21 (stereo not drawn) [Example 157, 2-[4-Amino-5-(4-phenoxyphenyl)-7H-pyrrolo[2,3-d]pyrimidin-7-yl]propionic Acid] | 239.5 to 241 °C
38 | CC(C)(C(N)=O)n1cc(-c2ccc(Oc3ccccc3)cc2)c2c(N)ncnc21 [Example 160, 2-[4-Amino-5-(4-phenoxyphenyl)pyrrolo[2,3-d]pyrimidin-7-yl]-2-methylpropionamide] | 227 to 228 °C
39 | Nc1ncnc2c1c(-c1ccc(Oc3ccccc3)cc1)cn2S(=O)(=O)C1CCCC1 [Example 168, 7-Cyclopentanesulphonyl-5-(4-phenoxyphenyl)-7H-pyrrolo[2,3-d]pyrimidin-4-ylamine] | 188 to 188.5 °C
